{"source": "paper PMC8776228", "about": "(International Journal of Molecular Sciences, 2022)", "key": {"[1]": {"test_system": "M. tuberculosis 53.3 (Rv2466c, W28S)", "type": "cell-based, Mycobacterium tuberculosis"}, "[2]": {"test_system": "M. tuberculosis 53.8 (Rv0579, L240V)", "type": "cell-based, Mycobacterium tuberculosis"}, "[3]": {"test_system": "M. tuberculosis NTB1 (DprE1 C387S)", "type": "cell-based, Mycobacterium tuberculosis"}, "[4]": {"test_system": "M. tuberculosis NTB9 (DprE1 C387G)", "type": "cell-based, Mycobacterium tuberculosis"}, "[5]": {"test_system": "M. tuberculosis DR1 (mmpL3, V681I)", "type": "cell-based, Mycobacterium tuberculosis"}, "[6]": {"test_system": "M. tuberculosis Ty1 (Rv3405c, c190t)", "type": "cell-based, Mycobacterium tuberculosis"}, "[7]": {"test_system": "M. tuberculosis 88.1 (coaA, Q207R)", "type": "cell-based, Mycobacterium tuberculosis"}, "[8]": {"test_system": "M. tuberculosis 88.7 (pyrG, V186G)", "type": "cell-based, Mycobacterium tuberculosis"}, "[9]": {"test_system": "M. tuberculosis 81.10 (ethA, D1109-37)", "type": "cell-based, Mycobacterium tuberculosis"}, "M. tuberculosis IC1": {"test_system": "M. tuberculosis IC1", "assay": "microbe, parasite or virus in culture", "type": "cell-based", "details": "Mycobacterium tuberculosis"}, "M. tuberculosis IC2": {"test_system": "M. tuberculosis IC2", "assay": "microbe, parasite or virus in culture", "type": "cell-based", "details": "Mycobacterium tuberculosis"}, "[10]": {"test_system": "M. tuberculosis H37Rv-pSODIT:dprE1", "assay": "microbe, parasite or virus in culture", "type": "cell-based, Mycobacterium tuberculosis"}}, "note": "Read-outs that look alike come from different tables or passages of the source.", "data": [{"smiles": "NNC(=O)c1ccncc1", "note": "[INH, isoniazid]", "values": [{"measurement": "MIC INH", "setting": "[1]", "result": 0.025, "unit": "µg/mL"}, {"measurement": "MIC INH", "setting": "[2]", "result": 0.025, "unit": "µg/mL"}, {"measurement": "MIC INH", "setting": "[3]", "result": 0.025, "unit": "µg/mL"}, {"measurement": "MIC INH", "setting": "[4]", "result": 0.025, "unit": "µg/mL"}, {"measurement": "MIC INH", "setting": "[5]", "result": 0.025, "unit": "µg/mL"}, {"measurement": "MIC INH", "setting": "[6]", "result": 0.025, "unit": "µg/mL"}, {"measurement": "MIC INH", "setting": "[7]", "result": 0.025, "unit": "µg/mL"}, {"measurement": "MIC INH", "setting": "[8]", "result": 0.025, "unit": "µg/mL"}, {"measurement": "MIC INH", "setting": "[9]", "result": 0.025, "unit": "µg/mL"}, {"measurement": "MIC", "setting": "M. tuberculosis IC1; IC1, read-out: MIC INH", "result": "> 0.2", "unit": "µg/mL"}, {"measurement": "MIC", "setting": "M. tuberculosis IC2; IC2, read-out: MIC INH", "result": "> 0.2", "unit": "µg/mL"}]}, {"smiles": "C[C@H]1COC2(CCN(c3nc(=O)c4cc(C(F)(F)F)cc([N+](=O)[O-])c4s3)CC2)O1", "note": "[BTZ043]", "values": [{"measurement": "MIC BTZ043", "setting": "[3]", "result": ">1", "unit": "µg/mL"}, {"measurement": "MIC BTZ043", "setting": "[4]", "result": 1, "unit": "µg/mL"}, {"measurement": "MIC", "setting": "[10]; Mycobacterium tuberculosis, H37RV, read-out: MIC BTZ043", "result": 1, "unit": "µg/mL"}]}, {"smiles": "CO[C@H]1C[C@H](O[C@@H]2/C(C)=C/C[C@@H]3C[C@@H](C[C@]4(CC[C@H](C)[C@@H](C5CCCCC5)O4)O3)OC(=O)[C@@H]3C=C(C)/C(=N/O)[C@H]4OC/C(=C\\C=C\\[C@@H]2C)[C@]43O)O[C@@H](C)[C@@H]1O", "note": "[Selamectin]", "values": [{"measurement": "MIC SEL", "setting": "[1]", "result": "2 to 4", "unit": "µg/mL"}, {"measurement": "MIC SEL", "setting": "[2]", "result": "2 to 4", "unit": "µg/mL"}, {"measurement": "MIC SEL", "setting": "[3]", "result": 2, "unit": "µg/mL"}, {"measurement": "change in sensitivity compared to H37Rv (MIC)", "setting": "[3]", "result": "two-fold increase in sensitivity"}, {"measurement": "MIC SEL", "setting": "[4]", "result": 2, "unit": "µg/mL"}, {"measurement": "change in sensitivity compared to H37Rv (MIC)", "setting": "[4]", "result": "two-fold increase in sensitivity"}, {"measurement": "change in susceptibility upon overexpression of dprE1 (MIC)", "setting": "[10]", "result": "did not confer changes in the susceptibility"}, {"measurement": "MIC SEL", "setting": "[5]", "result": "2 to 4", "unit": "µg/mL"}, {"measurement": "MIC SEL", "setting": "[6]", "result": "2 to 4", "unit": "µg/mL"}, {"measurement": "MIC SEL", "setting": "[7]", "result": "2 to 4", "unit": "µg/mL"}, {"measurement": "MIC SEL", "setting": "[8]", "result": "2 to 4", "unit": "µg/mL"}, {"measurement": "MIC SEL", "setting": "[9]", "result": "4 to 8", "unit": "µg/mL"}, {"measurement": "MIC", "setting": "M. tuberculosis IC1; IC1, read-out: MIC SEL", "result": "4 to 8", "unit": "µg/mL"}, {"measurement": "MIC", "setting": "M. tuberculosis IC2; IC2, read-out: MIC SEL", "result": "4 to 8", "unit": "µg/mL"}]}]}
